Reference: patent publication US20070259841A1, “Combinations for the treatment of rheumatoid arthritis” (CombinatoRx, Incorporated, priority 2002, published 2007)

How the values were obtained:
TNF-α secretion = test: TNF-α ELISA: TNF-alpha suppression in PMA/ionomycin-induced white blood cells; details: for TNF-α inhibition achievable by steroid alone: even at very high concentrations
[1] = 200 mg/day orally; cited from earlier work

## Clc1ccccc1C(c1ccccc1)(c1ccccc1)n1ccnc1 [Clotrimazole, clotrimazole]
TNF-α secretion; Diflorasone 0.0 nM, Clotrimazole 0.008 μM
  TNF-alpha Suppression: 4.92%
TNF-α secretion; Diflorasone 0.0 nM, Clotrimazole 0.014 μM
  TNF-alpha Suppression: 5.86%
TNF-α secretion; Diflorasone 0.0 nM, Clotrimazole 0.031 μM
  TNF-alpha Suppression: 12.47%
TNF-α secretion; Diflorasone 0.0 nM, Clotrimazole 0.063 μM
  TNF-alpha Suppression: 11.43%
TNF-α secretion; Diflorasone 0.0 nM, Clotrimazole 0.125 μM
  TNF-alpha Suppression: 18.40%
TNF-α secretion; Diflorasone 0.0 nM, Clotrimazole 0.250 μM
  TNF-alpha Suppression: 14.29%
TNF-α secretion; Diflorasone 0.0 nM, Clotrimazole 0.500 μM
  TNF-alpha Suppression: 20.07%
TNF-α secretion; Diflorasone 0.0 nM, Clotrimazole 1.000 μM
  TNF-alpha Suppression: 19.90%
TNF-α secretion; Diflorasone 0.0 nM, Clotrimazole 2.000 μM
  TNF-alpha Suppression: 30.02%

## C[C@@H]1C[C@H]2[C@@H]3CCC4=CC(=O)C=C[C@]4(C)[C@@]3(F)[C@@H](O)C[C@]2(C)[C@@]1(O)C(=O)CO [Dexamethasone, dexamethasone]
TNF-α secretion; Dexamethasone 1.0 nM, Econazole 0.000 μM
  TNF-alpha Suppression: 23.96%
TNF-α secretion; Dexamethasone 2.0 nM, Econazole 0.000 μM
  TNF-alpha Suppression: 33.10%
TNF-α secretion; Dexamethasone 4.0 nM, Econazole 0.000 μM
  TNF-alpha Suppression: 36.87%
TNF-α secretion; Dexamethasone 8.0 nM, Econazole 0.000 μM
  TNF-alpha Suppression: 40.33%
TNF-α secretion; Dexamethasone 16.0 nM, Econazole 0.000 μM
  TNF-alpha Suppression: 44.12%
TNF-α secretion; Dexamethasone 32.0 nM, Econazole 0.000 μM
  TNF-alpha Suppression: 51.26%
TNF-α secretion; Dexamethasone 64.0 nM, Econazole 0.000 μM
  TNF-alpha Suppression: 54.35%
TNF-α secretion; Dexamethasone 127.0 nM, Econazole 0.000 μM
  TNF-alpha Suppression: 52.97%
TNF-α secretion; Dexamethasone 255.0 nM, Econazole 0.000 μM
  TNF-alpha Suppression: 59.93%
TNF-α secretion; dexamethasone alone
  TNF-α inhibition achievable by steroid alone: 60%
TNF-α secretion; single agent concentration of 4 nM, PMA and ionomycin stimulated PBMCs
  suppression of TNF-α secretion: 40%

## CC(=O)OCC(=O)[C@@]1(OC(C)=O)[C@@H](C)C[C@H]2[C@@H]3C[C@H](F)C4=CC(=O)C=C[C@]4(C)[C@@]3(F)[C@@H](O)C[C@@]21C [Diflorasone, diflorasone]
TNF-α secretion; Diflorasone 0.5 nM, Clotrimazole 0.000 μM
  TNF-alpha Suppression: 9.84%
TNF-α secretion; Diflorasone 0.9 nM, Clotrimazole 0.000 μM
  TNF-alpha Suppression: 16.12%
TNF-α secretion; Diflorasone 1.9 nM, Clotrimazole 0.000 μM
  TNF-alpha Suppression: 21.93%
TNF-α secretion; Diflorasone 3.8 nM, Clotrimazole 0.000 μM
  TNF-alpha Suppression: 29.01%
TNF-α secretion; Diflorasone 7.5 nM, Clotrimazole 0.000 μM
  TNF-alpha Suppression: 36.86%
TNF-α secretion; Diflorasone 15.0 nM, Clotrimazole 0.000 μM
  TNF-alpha Suppression: 41.37%
TNF-α secretion; Diflorasone 30.0 nM, Clotrimazole 0.000 μM
  TNF-alpha Suppression: 49.96%
TNF-α secretion; Diflorasone 60.0 nM, Clotrimazole 0.000 μM
  TNF-alpha Suppression: 48.95%
TNF-α secretion; Diflorasone 120.0 nM, Clotrimazole 0.000 μM
  TNF-alpha Suppression: 47.05%
TNF-α secretion; diflorasone alone
  TNF-α inhibition achievable by steroid alone: 47%
TNF-α secretion; single agent concentration of 3.8 nM, P/I stimulated PBMCs
  suppression of TNF-α secretion: 29%

## Clc1ccc(COC(Cn2ccnc2)c2ccc(Cl)cc2Cl)cc1 (stereo not shown) [Econazole, econazole]
TNF-α secretion; Dexamethasone 0.0 nM, Econazole 0.035 μM
  TNF-alpha Suppression: 13.30%
TNF-α secretion; Dexamethasone 0.0 nM, Econazole 0.070 μM
  TNF-alpha Suppression: 20.05%
TNF-α secretion; Dexamethasone 0.0 nM, Econazole 0.141 μM
  TNF-alpha Suppression: 14.11%
TNF-α secretion; Dexamethasone 0.0 nM, Econazole 0.281 μM
  TNF-alpha Suppression: 16.99%
TNF-α secretion; Dexamethasone 0.0 nM, Econazole 1.124 μM
  TNF-alpha Suppression: 38.71%
TNF-α secretion; Dexamethasone 0.0 nM, Econazole 2.249 μM
  TNF-alpha Suppression: 43.90%
TNF-α secretion; Dexamethasone 0.0 nM, Econazole 4.497 μM
  TNF-alpha Suppression: 53.07%
TNF-α secretion; Dexamethasone 0.0 nM, Econazole 8.995 μM
  TNF-alpha Suppression: 70.06%

## CC(=O)N1CCN(c2ccc(OCC3COC(Cn4ccnc4)(c4ccc(Cl)cc4Cl)O3)cc2)CC1 (stereo not shown) [ketoconazole]
[1]
  serum concentration: about 3.2 micrograms
